Measured values as given in patent US9102752B2, “Peptide vaccine for prevention and immunotherapy of dementia of the Alzheimer's type” (United Biomedical, Inc., priority 2013, dated 2015).

Experiments:
[1] = tested on: anti-Aβ antibodies in sera of vaccinated patients; experiment: Epitope mapping, competitive binding inhibition EIA with patient sera (10-mer peptides, IC50); set-up: species or system human; Epitope mapping, fine specificity analysis, serum of subject P210: unit not given here; conditions: for Epitope mapping, fine specificity analysis, serum of subject P101: serum 16 wpi of vaccinated patient P101; for Epitope mapping, fine specificity analysis, serum of subject P102: serum 16 wpi of vaccinated patient P102; for Epitope mapping, fine specificity analysis, serum of subject P103: serum 16 wpi of vaccinated patient P103; for Epitope mapping, fine specificity analysis, serum of subject P104: serum 16 wpi of vaccinated patient P104; for Epitope mapping, fine specificity analysis, serum of subject P105: serum 16 wpi of vaccinated patient P105; for Epitope mapping, fine specificity analysis, serum of subject P106: serum 16 wpi of vaccinated patient P106; for Epitope mapping, fine specificity analysis, serum of subject P107: serum 16 wpi of vaccinated patient P107; for Epitope mapping, fine specificity analysis, serum of subject P108: serum 16 wpi of vaccinated patient P108; for Epitope mapping, fine specificity analysis, serum of subject P109: serum 16 wpi of vaccinated patient P109; for Epitope mapping, fine specificity analysis, serum of subject P201: serum 16 wpi of vaccinated patient P201; for Epitope mapping, fine specificity analysis, serum of subject P202: serum 16 wpi of vaccinated patient P202; for Epitope mapping, fine specificity analysis, serum of subject P203: serum 16 wpi of vaccinated patient P203; for Epitope mapping, fine specificity analysis, serum of subject P204: serum 16 wpi of vaccinated patient P204; for Epitope mapping, fine specificity analysis, serum of subject P205: serum 16 wpi of vaccinated patient P205; for Epitope mapping, fine specificity analysis, serum of subject P206: serum 16 wpi of vaccinated patient P206; for Epitope mapping, fine specificity analysis, serum of subject P207: serum 16 wpi of vaccinated patient P207; for Epitope mapping, fine specificity analysis, serum of subject P208: serum 16 wpi of vaccinated patient P208; for Epitope mapping, fine specificity analysis, serum of subject P209: serum 16 wpi of vaccinated patient P209; for Epitope mapping, fine specificity analysis, serum of subject P210: serum 16 wpi of vaccinated patient P210
[2] = tested on: anti-Aβ antibodies in macaque antisera; experiment: Specificity analysis (10-mer peptide ELISA) of antisera from Cynomolgus macaques; type: binding
[3] = antisera of macaques given UBI AD Vaccine 150 μg/dose, 9 WPI
[4] = antisera of macaques given UBI AD Vaccine 150 μg/dose, 15 WPI
[5] = antisera of macaques given UBI AD Vaccine 750 μg/dose, 9 WPI
[6] = antisera of macaques given UBI AD Vaccine 750 μg/dose, 15 WPI

| Substance | Epitope mapping, fine specificity analysis, serum of subject P101 [1] | Epitope mapping, fine specificity analysis, serum of subject P102 [1] | Epitope mapping, fine specificity analysis, serum of subject P103 [1] | Epitope mapping, fine specificity analysis, serum of subject P104 [1] | Epitope mapping, fine specificity analysis, serum of subject P105 [1] | Epitope mapping, fine specificity analysis, serum of subject P106 [1] | Epitope mapping, fine specificity analysis, serum of subject P107 [1] | Epitope mapping, fine specificity analysis, serum of subject P108 [1] | Epitope mapping, fine specificity analysis, serum of subject P109 [1] | Epitope mapping, fine specificity analysis, serum of subject P201 [1] | Epitope mapping, fine specificity analysis, serum of subject P202 [1] | Epitope mapping, fine specificity analysis, serum of subject P203 [1] | Epitope mapping, fine specificity analysis, serum of subject P204 [1] | Epitope mapping, fine specificity analysis, serum of subject P205 [1] | Epitope mapping, fine specificity analysis, serum of subject P206 [1] | Epitope mapping, fine specificity analysis, serum of subject P207 [1] | Epitope mapping, fine specificity analysis, serum of subject P208 [1] | Epitope mapping, fine specificity analysis, serum of subject P209 [1] | Epitope mapping, fine specificity analysis, serum of subject P210 [1] | Reactivity of antisera with peptide (specificity analysis ELISA) [2, 3] | further results |
| --- | --- | --- | --- | --- | --- | --- | --- | --- | --- | --- | --- | --- | --- | --- | --- | --- | --- | --- | --- | --- | --- |
| 28 (HHQKLVFFAE; PEPTIDE (1)..(10) Abeta 13-22 or APP 770(H684-E693); listed as Homo sapiens) [compound 28] | 0 | 0 | 0 | 0 | 0 | 0 | 0 | 0 | 0 | 0 | 0 | 0 | 0 | 0 | 0 | 0 | 0 | 0 | 0 | 0.044 | Reactivity of antisera with peptide (specificity analysis ELISA) [2, 4]: 0.052; Reactivity of antisera with peptide (specificity analysis ELISA) [2, 5]: 0.046; Reactivity of antisera with peptide (specificity analysis ELISA) [2, 6]: 0.032 |
| 25 (YEVHHQKLVF; PEPTIDE (1)..(10) Abeta 10-19 or APP 770(Y681-F690); listed as Homo sapiens) [compound 25] | 0 | 0 | 0 | 0 | 0 | 0 | 0 | 0 | 0 | 0 | 0 | 0 | 0 | 0 | 0 | 10 | 0 | 0 | 0 | 0.092 | Reactivity of antisera with peptide (specificity analysis ELISA) [2, 4]: 0.069; Reactivity of antisera with peptide (specificity analysis ELISA) [2, 5]: 0.069; Reactivity of antisera with peptide (specificity analysis ELISA) [2, 6]: 0.058 |
| 15 (KMDAEFRHDS; PEPTIDE (1)..(10) Abeta -2-8 or APP 770(K670-S679); listed as Homo sapiens) [compound 15] | 94 | 0 | 0 | 0 | 0 | 0 | 0 | 0 | 0 | 2 | 7 | 0 | 12 | 0 | 0 | 0 | 0 | 0 | 52 | 0.065 | Reactivity of antisera with peptide (specificity analysis ELISA) [2, 4]: 0.031; Reactivity of antisera with peptide (specificity analysis ELISA) [2, 5]: 0.069; Reactivity of antisera with peptide (specificity analysis ELISA) [2, 6]: 0.062 |
